Measured values reported in patent US8148424B2, “Tocopherols, tocotrienols, other chroman and side chain derivatives and uses thereof” (Research Development Foundation, priority 1998, dated 2012).

Assays:
[1] = test system: MDA-MB-435 Human Breast Cancer Cells Transplanted into Nude Mice; assay: Preclinical chemotherapeutic xenograft study; format: in vivo; details: for Percent mean tumor weight gain (mg) following treatments: relative to day 1 of same group
Procedure: (§1) For the preclinical chemotherapeutic studies, in the absence of an maximum tolerated dose, the mice are supplemented with 30 and 20 mgs/0.1 ml by gavage daily for 21 days. Compound 1 is dissolved in 100% ethanol at 2 grams of compound 1/5 mls of ethanol, and diluted in peanut oil (nonsupplemented vitamin E) to yield 30 and 20 mgs of compound 1 per 0.1 ml. Vehicle control consisted of a mixture of ethanol and peanut oil equivalents. The preclinical chemotherapeutic studies are conducted with compound 1, utilizing human MDA-MB-435 human breast cancer cells, human DU-145 prostate cancer cells, and human HT-20 colon tumor cells transplanted into Balb/c immune compromised nude mice.
(§2) A total of 40 immune compromised nude mice are utilized for testing each test compound (two treatment groups at 20 and 30 mg/day) in each tumor cell type. […] Tumor cells are transplanted subcutaneously into the left flank and permitted to grow to approximately 70 mg in size, test compound treatments by daily gavage are initiated, and continue for a total of 21 days. Mice are monitored daily for tumor size by caliper measurements. Mice are treated for 21 days; however, the mice are sacrificed when the tumors of the vehicle control reached 500 mg in weight. At the completion of the protocol, tumors are excised and tumor size established by weight. At the time of sacrifice, serum, tumor, and heart muscle are taken from animals in the two compound 1 test groups in order to establish levels of compound 1 via HPLC analyses (data not included). The chemotherapeutic effectiveness of compound 1 administered daily at 30 and 20 mgs/day is determined by comparing the tumor size of the two treatment groups with the vehicle control group for each of the three tumor types, and by comparing the size of the tumor in the two treatment groups with the tumor group from the positive control. Treatment is for 21 days, experiments are continued until mean weight of tumor for vehicle control reaches 500 mgs.

[2] = test system: DU-145 Human Prostate Cancer Cells Transplanted into Nude Mice; assay: Preclinical chemotherapeutic xenograft study; format: in vivo; details: for Percent mean tumor weight gain (mg) following treatments: relative to day 1 of same group
Procedure: as §1, §2

Cc1c(C)c2c(c(C)c1OCC(=O)O)CC[C@@](C)(CCC[C@H](C)CCC[C@H](C)CCCC(C)C)O2 [Compound 1, 2,5,7,8-tetramethyl-(2R-(4R,8R,12-trimethyltridecyl)chroman-6-yloxy)acetic acid]
reduction of mean tumor weight vs vehicle control ([1]; 20 mg/day by gavage for 21 days, day 21): 20.7% | Mean tumor Weights (mg) Following Treatments ([1]; 20 mg/day gavage, day 1): 70.1 mg | Percent mean tumor weight gain (mg) following treatments ([1]; 20 mg/day gavage, day 1): 100% | Mean tumor Weights (mg) Following Treatments ([1]; 20 mg/day gavage, day 4): 85.8 mg | Percent mean tumor weight gain (mg) following treatments ([1]; 20 mg/day gavage, day 4): 122.4% | Mean tumor Weights (mg) Following Treatments ([1]; 20 mg/day gavage, day 7): 123.9 mg | Percent mean tumor weight gain (mg) following treatments ([1]; 20 mg/day gavage, day 7): 176.7% | Mean tumor Weights (mg) Following Treatments ([1]; 20 mg/day gavage, day 10): 127.9 mg | Percent mean tumor weight gain (mg) following treatments ([1]; 20 mg/day gavage, day 10): 182.5% | Mean tumor Weights (mg) Following Treatments ([1]; 20 mg/day gavage, day 14): 147.2 mg | Percent mean tumor weight gain (mg) following treatments ([1]; 20 mg/day gavage, day 14): 210.0% | Mean tumor Weights (mg) Following Treatments ([1]; 20 mg/day gavage, day 17): 143.8 mg | Percent mean tumor weight gain (mg) following treatments ([1]; 20 mg/day gavage, day 17): 205.1% | Mean tumor Weights (mg) Following Treatments ([1]; 20 mg/day gavage, day 21): 179.4 mg | Percent mean tumor weight gain (mg) following treatments ([1]; 20 mg/day gavage, day 21): 255.9% | reduction of mean tumor weight vs vehicle control ([1]; 30 mg/day by gavage for 21 days, day 21): 44.6% | Mean tumor Weights (mg) Following Treatments ([1]; 30 mg/day gavage, day 1): 68.1 mg | Percent mean tumor weight gain (mg) following treatments ([1]; 30 mg/day gavage, day 1): 100% | Mean tumor Weights (mg) Following Treatments ([1]; 30 mg/day gavage, day 4): 85.7 mg | Percent mean tumor weight gain (mg) following treatments ([1]; 30 mg/day gavage, day 4): 125.8% | Mean tumor Weights (mg) Following Treatments ([1]; 30 mg/day gavage, day 7): 97.3 mg | Percent mean tumor weight gain (mg) following treatments ([1]; 30 mg/day gavage, day 7): 142.9% | Mean tumor Weights (mg) Following Treatments ([1]; 30 mg/day gavage, day 10): 98.4 mg | Percent mean tumor weight gain (mg) following treatments ([1]; 30 mg/day gavage, day 10): 144.5% | Mean tumor Weights (mg) Following Treatments ([1]; 30 mg/day gavage, day 14): 126.6 mg | Percent mean tumor weight gain (mg) following treatments ([1]; 30 mg/day gavage, day 14): 185.9% | Mean tumor Weights (mg) Following Treatments ([1]; 30 mg/day gavage, day 17): 118.7 mg | Percent mean tumor weight gain (mg) following treatments ([1]; 30 mg/day gavage, day 17): 174.3% | Mean tumor Weights (mg) Following Treatments ([1]; 30 mg/day gavage, day 21): 125.2 mg | Percent mean tumor weight gain (mg) following treatments ([1]; 30 mg/day gavage, day 21): 178.6% | reduction of mean tumor weight vs vehicle control ([2]; 20 mg/day by gavage for 21 days, day 22): 31.5% | Mean tumor Weights (mg) Following Treatments ([2]; 20 mg/day gavage, day 1): 66.5 mg | Percent mean tumor weight gain (mg) following treatments ([2]; 20 mg/day gavage, day 1): 100% | Mean tumor Weights (mg) Following Treatments ([2]; 20 mg/day gavage, day 5): 103.5 mg | Percent mean tumor weight gain (mg) following treatments ([2]; 20 mg/day gavage, day 5): 155.6% | Mean tumor Weights (mg) Following Treatments ([2]; 20 mg/day gavage, day 8): 137.9 mg | Percent mean tumor weight gain (mg) following treatments ([2]; 20 mg/day gavage, day 8): 207.4% | Mean tumor Weights (mg) Following Treatments ([2]; 20 mg/day gavage, day 12): 208 mg | Percent mean tumor weight gain (mg) following treatments ([2]; 20 mg/day gavage, day 12): 312.8% | Mean tumor Weights (mg) Following Treatments ([2]; 20 mg/day gavage, day 15): 254.8 mg | Percent mean tumor weight gain (mg) following treatments ([2]; 20 mg/day gavage, day 15): 383.2% | Mean tumor Weights (mg) Following Treatments ([2]; 20 mg/day gavage, day 19): 362.2 mg | Percent mean tumor weight gain (mg) following treatments ([2]; 20 mg/day gavage, day 19): 362.2% | Mean tumor Weights (mg) Following Treatments ([2]; 20 mg/day gavage, day 22): 370.5 mg | Percent mean tumor weight gain (mg) following treatments ([2]; 20 mg/day gavage, day 22): 544.7% | reduction of mean tumor weight vs vehicle control ([2]; 30 mg/day by gavage for 21 days, day 22): 24.8% | Mean tumor Weights (mg) Following Treatments ([2]; 30 mg/day gavage, day 1): 67.8 mg
